Results reported in patent US20230013823A1, “INHIBITORS OF HUMAN IMMUNODEFICIENCY VIRUS REPLICATION” (VIV HEALTHCARE UK (No. 5) LIMITED, priority 2019, published 2023).

Columns and labels:
[1] = Compound cytotoxicity, XTT-based colorimetric assay; format: cell-based; conditions: human; uninfected MT2 cells, day 4, XTT
Procedure: Compound cytotoxicity and the corresponding CC50 values were determined using the same protocol as described in the antiviral assay except that uninfected cells were used. Cytotoxicity was assessed on day 4 in uninfected MT2 cells by using an XTT (2,3-bis[2-Methoxy-4-nitro-5-sulfophenyl]-2H-tetrazolium-5-carboxyanilide inner salt)-based colorimetric assay (Sigma-Aldrich, St Louis, Mo.).

[2] = tested on: recombinant NL4-3 virus (Renilla luciferase in nef); assay: HIV cell culture assay (antiviral activity, luciferase readout in MT-2 cells); format: cell-based; conditions: Renilla, NL43
Summary of the method: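 MT-2 cells were infected for 4-5 days with 293T-derived recombinant NL4-3 reporter virus in the presence of serially diluted compound. Antiviral activity was quantified as luciferase activity using a live-cell substrate. EC50 was derived from the median effect equation.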

Structure (SMILES) | CC50 at 4 days [1] [nM] | EC50 [2] [nM]
Cn1nc(NS(C)(=O)=O)c2c(Cl)ccc(-n3c([C@H](Cc4cc(F)cc(F)c4)NC(=O)Cn4nc(C(F)F)c5c4C(F)(F)[C@@H]4C[C@H]54)nc4cc(-n5cc(C(F)(F)F)cn5)ccc4c3=O)c21 (atropisomer, axis not shown; (P)) [Example 38, N—((S)-1-((3P)-3-(4-chloro-1-methyl-3-(methylsulfonamido)-1H-indazol-7-yl)-4-oxo-7-(4-(trifluoromethyl)-1H-pyrazol-1-yl)-3,4-dihydroquinazolin-2-yl)-2-(3,5-difluorophenyl)ethyl)-2-((3bS,4aR)-3-(difluoromethyl)-5,5-difluoro-3b,4,4a,5-tetrahydro-1H-cyclopropa[3,4]cyclopenta[1,2-c]pyrazol-1-yl)acetamide] | > 100 | 0.17
Cn1nc(NS(C)(=O)=O)c2c(Cl)ccc(-n3c([C@H](Cc4cc(F)cc(F)c4)NC(=O)Cn4nc(C(F)F)c5c4C(F)(F)[C@@H]4C[C@H]54)nc4cc(-c5ccnc(C#N)n5)ccc4c3=O)c21 (atropisomer, axis not shown; (P)) [Example 11, N—((S)-1-((3P)-3-(4-chloro-1-methyl-3-(methylsulfonamido)-1H-indazol-7-yl)-7-(2-cyanopyrimidin-4-yl)-4-oxo-3,4-dihydroquinazolin-2-yl)-2-(3,5-difluorophenyl)ethyl)-2-((3bS,4aR)-3-(difluoromethyl)-5,5-difluoro-3b,4,4a,5-tetrahydro-1H-cyclopropa[3,4]cyclopenta[1,2-c]pyrazol-1-yl)acetamide] | > 500 | 0.089
Cc1cc(-c2ccc3c(=O)n(-c4ccc(Cl)c5c(NS(C)(=O)=O)nn(C)c45)c([C@H](Cc4cc(F)cc(F)c4)NC(=O)Cn4nc(C(F)F)c5c4C(F)(F)[C@@H]4C[C@H]54)nc3c2)nc(C(F)(F)F)n1 (atropisomer, axis not shown; (P)) [Example 26, N—((S)-1-((3P)-3-(4-chloro-1-methyl-3-(methylsulfonamido)-1H-indazol-7-yl)-7-(6-methyl-2-(trifluoromethyl)pyrimidin-4-yl)-4-oxo-3,4-dihydroquinazolin-2-yl)-2-(3,5-difluorophenyl)ethyl)-2-((3bS,4aR)-3-(difluoromethyl)-5,5-difluoro-3b,4,4a,5-tetrahydro-1H-cyclopropa[3,4]cyclopenta[1,2-c]pyrazol-1-yl)acetamide] | > 100 | 0.087
C[C@H](C(=O)N[C@@H](Cc1cc(F)cc(F)c1)c1nc2cc(-c3ccn(CC(C)(F)F)n3)ccc2c(=O)n1-c1ccc(Cl)c2c(NS(C)(=O)=O)nn(C)c12)n1ccc(C2CC2)n1 (atropisomer, axis not shown; (P)) [Example 65, (R)—N—((S)-1-((3P)-3-(4-chloro-1-methyl-3-(methylsulfonamido)-1H-indazol-7-yl)-7-(1-(2,2-difluoropropyl)-1H-pyrazol-3-yl)-4-oxo-3,4-dihydroquinazolin-2-yl)-2-(3,5-difluorophenyl)ethyl)-2-(3-cyclopropyl-1H-pyrazol-1-yl)propanamide] | > 100 | 0.17
CS(=O)(=O)Nc1nn(CCCF)c2c(-n3c([C@H](Cc4cc(F)cc(F)c4)NC(=O)Cn4nc(C(F)F)c5c4C(F)(F)[C@@H]4C[C@H]54)nc4cc(-c5ccnn5CC(F)(F)C(F)F)ccc4c3=O)ccc(Cl)c12 [Example 62, N—((S)-1-((3P)-3-(4-chloro-1-(3-fluoropropyl)-3-(methylsulfonamido)-1H-indazol-7-yl)-4-oxo-7-(1-(2,2,3,3-tetrafluoropropyl)-1H-pyrazol-5-yl)-3,4-dihydroquinazolin-2-yl)-2-(3,5-difluorophenyl)ethyl)-2-((3bS,4aR)-3-(difluoromethyl)-5,5-difluoro-3b,4,4a,5-tetrahydro-1H-cyclopropa[3,4]cyclopenta[1,2-c]pyrazol-1-yl)acetamide] | > 100 | 0.074
Cn1nc(NS(C)(=O)=O)c2c(Cl)ccc(-n3c([C@H](Cc4cc(F)cc(F)c4)NC(=O)Cn4nc(C(F)F)c5c4C(F)(F)[C@@H]4C[C@H]54)nc4cc(-c5nccnc5C(F)(F)F)ccc4c3=O)c21 (atropisomer, axis not shown; (P)) [Example 23, N—((S)-1-((3P)-3-(4-chloro-1-methyl-3-(methylsulfonamido)-1H-indazol-7-yl)-4-oxo-7-(3-(trifluoromethyl)pyrazin-2-yl)-3,4-dihydroquinazolin-2-yl)-2-(3,5-difluorophenyl)ethyl)-2-((3bS,4aR)-3-(difluoromethyl)-5,5-difluoro-3b,4,4a,5-tetrahydro-1H-cyclopropa[3,4]cyclopenta[1,2-c]pyrazol-1-yl)acetamide] | > 100 | 0.071
Cn1nc(NS(C)(=O)=O)c2c(Cl)ccc(-n3c([C@H](Cc4cc(F)cc(F)c4)NC(=O)Cn4nc(C(F)F)c5c4C(F)(F)[C@@H]4C[C@H]54)nc4cc(-c5ccnc(C(F)F)n5)ccc4c3=O)c21 (atropisomer, axis not shown; (P)) [Example 56, N—((S)-1-((3P)-3-(4-chloro-1-methyl-3-(methylsulfonamido)-1H-indazol-7-yl)-7-(2-(difluoromethyl)pyrimidin-4-yl)-4-oxo-3,4-dihydroquinazolin-2-yl)-2-(3,5-difluorophenyl)ethyl)-2-((3bS,4aR)-3-(difluoromethyl)-5,5-difluoro-3b,4,4a,5-tetrahydro-1H-cyclopropa[3,4]cyclopenta[1,2-c]pyrazol-1-yl)acetamide] | > 100 | 0.017
Cn1nc(NS(C)(=O)=O)c2c(Cl)ccc(-n3c([C@H](Cc4cc(F)cc(F)c4)NC(=O)Cn4nc(C(F)F)c5c4C(F)(F)[C@@H]4C[C@H]54)nc4cc(-c5ccc6scnc6c5)ccc4c3=O)c21 (atropisomer, axis not shown; (P)) [Example 45, N—((S)-1-(7-(benzo[d]thiazol-5-yl)-(3P)-3-(4-chloro-1-methyl-3-(methylsulfonamido)-1H-indazol-7-yl)-4-oxo-3,4-dihydroquinazolin-2-yl)-2-(3,5-difluorophenyl)ethyl)-2-((3bS,4aR)-3-(difluoromethyl)-5,5-difluoro-3b,4,4a,5-tetrahydro-1H-cyclopropa[3,4]cyclopenta[1,2-c]pyrazol-1-yl)acetamide] | > 100 | 0.44
Cn1nc(NS(C)(=O)=O)c2c(Cl)ccc(-n3c([C@H](Cc4cc(F)cc(F)c4)NC(=O)Cn4nc(C(F)F)c5c4C(F)(F)[C@@H]4C[C@H]54)nc4cc(-c5nc(C(F)(F)F)ccc5F)ccc4c3=O)c21 (atropisomer, axis not shown; (P)) [Example 21, N—((S)-1-((3P)-3-(4-chloro-1-methyl-3-(methylsulfonamido)-1H-indazol-7-yl)-7-(3-fluoro-6-(trifluoromethyl)pyridin-2-yl)-4-oxo-3,4-dihydroquinazolin-2-yl)-2-(3,5-difluorophenyl)ethyl)-2-((3bS,4aR)-3-(difluoromethyl)-5,5-difluoro-3b,4,4a,5-tetrahydro-1H-cyclopropa[3,4]cyclopenta[1,2-c]pyrazol-1-yl)acetamide] | > 100 | 0.15
CC(F)(F)Cn1ccc(-c2ccc3c(=O)n(-c4ccc(Cl)c5c(NS(C)(=O)=O)nn(CC(F)F)c45)c([C@H](Cc4cc(F)cc(F)c4)NC(=O)Cn4nc(C(F)F)c5c4C(F)(F)[C@@H]4C[C@H]54)nc3c2)n1 (atropisomer, axis not shown; (P)) [Example 64, N—((S)-1-((3P)-3-(4-chloro-1-(2,2-difluoroethyl)-3-(methylsulfonamido)-1H-indazol-7-yl)-7-(1-(2,2-difluoropropyl)-1H-pyrazol-3-yl)-4-oxo-3,4-dihydroquinazolin-2-yl)-2-(3,5-difluorophenyl)ethyl)-2-((3bS,4aR)-3-(difluoromethyl)-5,5-difluoro-3b,4,4a,5-tetrahydro-1H-cyclopropa[3,4]cyclopenta[1,2-c]pyrazol-1-yl)acetamide] | > 100 | 0.087
Cn1nc(NS(C)(=O)=O)c2c(Cl)ccc(-n3c([C@H](Cc4cc(F)cc(F)c4)NC(=O)Cn4nc(C(F)F)c5c4C(F)(F)[C@@H]4C[C@H]54)nc4cc(-c5cnn(CCF)c5)ccc4c3=O)c21 (atropisomer, axis not shown; (P)) [Example 42, N—((S)-1-((3P)-3-(4-chloro-1-methyl-3-(methylsulfonamido)-1H-indazol-7-yl)-7-(1-(2-fluoroethyl)-1H-pyrazol-4-yl)-4-oxo-3,4-dihydroquinazolin-2-yl)-2-(3,5-difluorophenyl)ethyl)-2-((3bS,4aR)-3-(difluoromethyl)-5,5-difluoro-3b,4,4a,5-tetrahydro-1H-cyclopropa[3,4]cyclopenta[1,2-c]pyrazol-1-yl)acetamide] | > 100 | 0.068
Cn1nc(NS(C)(=O)=O)c2c(Cl)ccc(-n3c([C@H](Cc4cc(F)cc(F)c4)NC(=O)Cn4nc(C(F)F)c5c4C(F)(F)[C@@H]4C[C@H]54)nc4cc(-c5cncc(C(F)F)c5)ccc4c3=O)c21 (atropisomer, axis not shown; (P)) [Example 17, N—((S)-1-((3P)-3-(4-chloro-1-methyl-3-(methylsulfonamido)-1H-indazol-7-yl)-7-(5-(difluoromethyl)pyridin-3-yl)-4-oxo-3,4-dihydroquinazolin-2-yl)-2-(3,5-difluorophenyl)ethyl)-2-((3bS,4aR)-3-(difluoromethyl)-5,5-difluoro-3b,4,4a,5-tetrahydro-1H-cyclopropa[3,4]cyclopenta[1,2-c]pyrazol-1-yl)acetamide] | > 500 | 0.078
